System: mouse liver microsomes, LC-MS/MS half-life
Assay: Inhibitors of Cruzain: Metabolic Stability Theory
Conditions: at 1 µM; hits give high values
Source text: Chagas Disease is a neglected tropical disease that affects over 16 million people in Latin America. The cysteine protease cruzain is essential for the survival Trypanosoma cruzi, the parasitic agent responsible for Chagas disease. Potential intervention for T. cruzi includes the inhibition of cruzain. This bioassay will summarize the ongoing development of small molecule cruzain inhbitiors. Currently, a screen of ~200k compounds and through extensive follow-up work a probe was identified. To further characterize the probe, it was tested in in vitro ADME assays. Mouse liver microsomes are created through broken up endoplasmic reticulum from mouse liver. These liver microsomes contain many drug metabolizing enzymes, such as Cytochome P-450s and flavin-containing monooxygenases. Because metabolism is major way of drug clearance, this is an important result. NIH Chemical Genomics Center [NCGC] NIH Molecular Libraries Probe Production Centers Network [MLPCN] MLSCN Grant: DA024891-01 PI Name: Dr. Brian Shoichet; University of California, San Francisco
1uM of compound in incubated in mouse liver microsome; the reference compound is ketanserin. Compounds are incubated at 37 degrees C for different time periods: 0, 5, 15, 30, 45, and 60 minutes. Samples are analyzed with LC-MS/MS.

half-life: 8 min
Compound: Cc1ccc(OCCn2c(CCNC(=O)C3CCCCC3)nc3ccccc32)cc1

Source: PubChem BioAssay AID504754 (National Center for Advancing Translational Sciences (NCATS), 2011)
